Results published in PubChem BioAssay AID256 (DTP/NCI, 2004).
Several values for one entry are separate records, joined by “and”; a condition that tells them apart may be missing. Identical values can stand only once. Inconclusive results and toxic doses are left out. How the source made its calls: active means survival T/C of 150% or more; inactive means T/C below 125% in these data.

System: CD2F1 mice, L1210 leukemia ip, survival T/C
Experiment: NCI In Vivo Anticancer Drug Screen. Data for tumor model L1210 Leukemia (intraperitoneal) in CD2F1 (CDF1) mice
Conditions: higher = longer survival
Outline: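 Read-out first: treated-group measurement over vehicle-control measurement, expressed as a ratio. Animals bore a transplanted tumor line and were dosed with compound or vehicle.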

[1] = endpoint: mean survival time, dose: 100.0 mg/kg/injection, schedule: Q04DX003 (ip), vehicle: saline with Tween-80
[2] = endpoint: mean survival time, dose: 200.0 mg/kg/injection, schedule: Q04DX003 (ip), vehicle: saline with Tween-80
[3] = endpoint: mean survival time, dose: 400.0 mg/kg/injection, schedule: Q04DX003 (ip), vehicle: saline with Tween-80
[4] = endpoint: mean survival time, dose: 100.0 mg/kg/injection, schedule: Q01DX001 (ip), vehicle: saline with Tween-80
[5] = endpoint: mean survival time, dose: 200.0 mg/kg/injection, schedule: Q01DX001 (ip), vehicle: saline with Tween-80
[6] = endpoint: mean survival time, dose: 400.0 mg/kg/injection, schedule: Q01DX001 (ip), vehicle: saline with Tween-80
[7] = endpoint: mean survival time, dose: 100.0 mg/kg/injection, schedule: Q01DX001 (ip), vehicle: saline
[8] = endpoint: mean survival time, dose: 200.0 mg/kg/injection, schedule: Q01DX001 (ip), vehicle: saline
[9] = endpoint: mean survival time, dose: 400.0 mg/kg/injection, schedule: Q01DX001 (ip), vehicle: saline

Measured: T/C

Clc1ccc(N=Cc2ccccc2Cl)cc1
inactive: [1] 107 % of control | [2] 113 % of control | [3] 100 % of control

Nc1ccc2c(c1)C(=O)c1ccc(N)cc1C2=O
inactive: [4] 88 % of control | [5] 96 % of control | [6] 88 % of control

CC(=O)SC(c1ccccc1)(c1ccccc1)c1ccccc1
inactive: [1] 95 % of control and 103 % of control | [2] 91 % of control and 97 % of control | [3] 90 % of control and 100 % of control

N=c1c2c(C(N)=O)cn(C3OC(CO)C(O)C3O)c2ncn1N (stereo not drawn)
inactive: endpoint: mean survival time, dose: 14.7 mg/kg/injection, schedule: Q01DX005 (ip), vehicle: water 110 % of control | endpoint: mean survival time, dose: 22.0 mg/kg/injection, schedule: Q01DX005 (ip), vehicle: water 118 % of control | endpoint: mean survival time, dose: 25.0 mg/kg/injection, schedule: Q01DX005 (ip), vehicle: water 117 % of control | endpoint: mean survival time, dose: 33.0 mg/kg/injection, schedule: Q01DX005 (ip), vehicle: water 121 % of control | endpoint: mean survival time, dose: 50.0 mg/kg/injection, schedule: Q01DX005 (ip), vehicle: water 120 % of control | endpoint: mean survival time, dose: 75.0 mg/kg/injection, schedule: Q01DX005 (ip), vehicle: water 106 % of control | endpoint: mean survival time, dose: 100.0 mg/kg/injection, schedule: Q01DX005 (ip), vehicle: water 98 % of control

O=C(C=C(C(F)(F)F)C(F)(F)F)c1ccc(Cl)c2ccccc12
inactive: [1] 105 % of control

O=C(C[n+]1cc2ccccc2cc1Cl)c1ccccc1
inactive: endpoint: mean survival time, dose: 100.0 mg/kg/injection, schedule: Q04DX003 (ip), vehicle: Klucel (hydroxypropylcellulose) (HPC) 97 % of control | endpoint: mean survival time, dose: 200.0 mg/kg/injection, schedule: Q04DX003 (ip), vehicle: Klucel (hydroxypropylcellulose) (HPC) 88 % of control

COC(=O)c1cc([N+](=O)[O-])c(Sc2ncnc3nc[nH]c23)c([N+](=O)[O-])c1
inactive: endpoint: mean survival time, dose: 11.0 mg/kg/injection, schedule: Q01DX005 (ip), vehicle: other 103 % of control | endpoint: mean survival time, dose: 12.5 mg/kg/injection, schedule: Q01DX005 (ip), vehicle: other 110 % of control | endpoint: mean survival time, dose: 16.5 mg/kg/injection, schedule: Q01DX005 (ip), vehicle: other 124 % of control | endpoint: mean survival time, dose: 25.0 mg/kg/injection, schedule: Q01DX005 (ip), vehicle: other 95 % of control | endpoint: mean survival time, dose: 50.0 mg/kg/injection, schedule: Q01DX005 (ip), vehicle: other 115 % of control

C(=N/N=C/c1ccsc1)/c1ccsc1
inactive: endpoint: median survival time, dose: 50.0 mg/kg/injection, schedule: Q04DX002 (ip), vehicle: saline with Tween-80 90 % of control | endpoint: median survival time, dose: 100.0 mg/kg/injection, schedule: Q04DX002 (ip), vehicle: saline with Tween-80 90 % of control | endpoint: median survival time, dose: 200.0 mg/kg/injection, schedule: Q04DX002 (ip), vehicle: saline with Tween-80 90 % of control | endpoint: median survival time, dose: 400.0 mg/kg/injection, schedule: Q04DX002 (ip), vehicle: saline with Tween-80 90 % of control

COc1ccc2c(c1C)Cc1ccccc1C2=O
inactive: [1] 90 % of control | [2] 89 % of control | [3] 97 % of control

CC(NC(=O)CNC(=O)CNC(=O)OCc1ccccc1)C(=O)OCc1ccccc1 (stereo not drawn)
inactive: [1] 97 % of control | [2] 99 % of control | [3] 101 % of control

O=C1C(=O)c2ccccc2-c2ccccc21.O=C1C(=O)c2ccccc2-c2ccccc21.[Hg]
inactive: endpoint: mean survival time, dose: 1.56 mg/kg/injection, schedule: Q04DX002 (ip), vehicle: saline with Tween-80 87 % of control | endpoint: mean survival time, dose: 3.13 mg/kg/injection, schedule: Q04DX002 (ip), vehicle: saline with Tween-80 98 % of control | endpoint: mean survival time, dose: 6.25 mg/kg/injection, schedule: Q04DX002 (ip), vehicle: saline with Tween-80 113 % of control

O=S1CC2(C1)CS(=O)C2 (stereo not drawn)
inactive: [7] 103 % of control | [8] 103 % of control | [9] 100 % of control

O=C(O)CC(Nc1sc([N+](=O)[O-])cc1[N+](=O)[O-])C(=O)O (stereo not drawn)
inactive: [4] 98 % of control | [5] 105 % of control | [6] 102 % of control

COC(OC)C(OC(C)=O)C(OC(C)=O)C(COC(C)=O)OC(C)=O (stereo not drawn)
inactive: [7] 107 % of control | [8] 95 % of control | [9] 101 % of control

CC1CC([NH-])C([NH-])C(C)(C)C1.[Cl][Pt+2][Cl] (stereo not drawn)
inactive: endpoint: median survival time, dose: 10.0 mg/kg/injection, schedule: Q04DX003 (ip), vehicle: Klucel (hydroxypropylcellulose) (HPC) 117 % of control
active: endpoint: median survival time, dose: 50.0 mg/kg/injection, schedule: Q04DX003 (ip), vehicle: Klucel + Tween-80 153 % of control | endpoint: median survival time, dose: 100.0 mg/kg/injection, schedule: Q04DX003 (ip), vehicle: Klucel + Tween-80 155 % of control

CCCCCCCC(=O)OCC(=O)[C@]1(O)Cc2c(O)c3c(c(O)c2[C@@H](OC2CC(N)C(O)C(C)O2)C1)C(=O)c1c(OC)cccc1C3=O (stereo partly drawn)
active: endpoint: mean survival time, dose: 2.0 mg/kg/injection, schedule: Q01DX009 (ip), vehicle: saline sonified 153 % of control | endpoint: mean survival time, dose: 2.0 mg/kg/injection, schedule: Q01DX009 (ip), vehicle: saline with Tween-80 211 % of control | endpoint: mean survival time, dose: 2.0 mg/kg/injection, schedule: Q01DX009 (ip), vehicle: water 151 % of control | endpoint: mean survival time, dose: 3.0 mg/kg/injection, schedule: Q04DX003 (ip), vehicle: saline with Tween-80 164 % of control | endpoint: mean survival time, dose: 20.0 mg/kg/injection, schedule: Q01DX001 (ip), vehicle: saline with Tween-80 161 % of control
inactive: endpoint: mean survival time, dose: 0.5 mg/kg/injection, schedule: Q01DX009 (ip), vehicle: water 117 % of control | endpoint: mean survival time, dose: 8.0 mg/kg/injection, schedule: Q01DX009 (ip), vehicle: saline with Tween-80 90 % of control | endpoint: mean survival time, dose: 20.0 mg/kg/injection, schedule: Q04DX003 (ip), vehicle: saline with Tween-80 104 % of control

COc1cc(N=CNc2cc(OC)n[n+]([O-])c2)c[n+]([O-])n1
inactive: endpoint: mean survival time, dose: 12.5 mg/kg/injection, schedule: Q04DX002 (ip), vehicle: saline with Tween-80 111 % of control | endpoint: mean survival time, dose: 25.0 mg/kg/injection, schedule: Q04DX002 (ip), vehicle: saline with Tween-80 86 % of control | endpoint: mean survival time, dose: 50.0 mg/kg/injection, schedule: Q04DX002 (ip), vehicle: saline with Tween-80 101 % of control

CCc1ccccc1NC(=O)/C=C/c1ccccc1
inactive: endpoint: mean survival time, dose: 100.0 mg/kg/injection, schedule: Q04DX002 (ip), vehicle: saline with Tween-80 86 % of control | endpoint: mean survival time, dose: 200.0 mg/kg/injection, schedule: Q04DX002 (ip), vehicle: saline with Tween-80 96 % of control | endpoint: mean survival time, dose: 400.0 mg/kg/injection, schedule: Q04DX002 (ip), vehicle: saline with Tween-80 93 % of control

CC(COCc1ccccc1)COP(N)(=O)N(CCCl)CCCl (stereo not drawn)
inactive: endpoint: mean survival time, dose: 15.62 mg/kg/injection, schedule: Q01DX001 (ip), vehicle: DMSO 97 % of control | endpoint: mean survival time, dose: 31.3 mg/kg/injection, schedule: Q01DX001 (ip), vehicle: DMSO 98 % of control | endpoint: mean survival time, dose: 62.5 mg/kg/injection, schedule: Q01DX001 (ip), vehicle: DMSO 101 % of control | endpoint: mean survival time, dose: 125.0 mg/kg/injection, schedule: Q01DX001 (ip), vehicle: DMSO 111 % of control | endpoint: mean survival time, dose: 250.0 mg/kg/injection, schedule: Q01DX001 (ip), vehicle: DMSO 103 % of control | endpoint: mean survival time, dose: 500.0 mg/kg/injection, schedule: Q01DX001 (ip), vehicle: DMSO 101 % of control

COC(=O)C1CC23C=CCN4CC(C2C)C2(c5ccccc5NC12)C43 (stereo not drawn)
inactive: endpoint: mean survival time, dose: 8.0 mg/kg/injection, schedule: Q01DX001 (ip), vehicle: saline 102 % of control | endpoint: mean survival time, dose: 16.0 mg/kg/injection, schedule: Q01DX001 (ip), vehicle: saline 96 % of control | endpoint: mean survival time, dose: 32.0 mg/kg/injection, schedule: Q01DX001 (ip), vehicle: saline 102 % of control | endpoint: mean survival time, dose: 64.0 mg/kg/injection, schedule: Q01DX001 (ip), vehicle: saline 101 % of control

O=C(c1ccccc1)C1C(C(=O)c2ccccc2)C1c1ccccc1 (stereo not drawn)
inactive: [4] 87 % of control | [5] 90 % of control | [6] 93 % of control

Cc1cn(C2CC(O)C(CO)O2)c(=O)nc1N1CCCCCCC1 (stereo not drawn)
inactive: endpoint: median survival time, dose: 12.5 mg/kg/injection, schedule: Q01DX005 (ip), vehicle: water 102 % of control | endpoint: median survival time, dose: 25.0 mg/kg/injection, schedule: Q01DX005 (ip), vehicle: water 102 % of control | endpoint: median survival time, dose: 50.0 mg/kg/injection, schedule: Q01DX005 (ip), vehicle: water 102 % of control | endpoint: median survival time, dose: 100.0 mg/kg/injection, schedule: Q01DX005 (ip), vehicle: water 102 % of control | endpoint: median survival time, dose: 200.0 mg/kg/injection, schedule: Q01DX005 (ip), vehicle: water 103 % of control

C=C(C)/C([O-])=N/[N+](C)(C)CC(O)CCCCCCCCCCCC (stereo not drawn)
inactive: endpoint: mean survival time, dose: 25.0 mg/kg/injection, schedule: Q01DX001 (ip), vehicle: saline 96 % of control and 97 % of control | endpoint: mean survival time, dose: 50.0 mg/kg/injection, schedule: Q01DX001 (ip), vehicle: saline 97 % of control and 100 % of control | endpoint: mean survival time, dose: 50.0 mg/kg/injection, schedule: Q01DX009 (ip), vehicle: saline with Tween-80 94 % of control | [7] 96 % of control and 97 % of control | endpoint: mean survival time, dose: 100.0 mg/kg/injection, schedule: Q01DX009 (ip), vehicle: saline with Tween-80 94 % of control | [8] 93 % of control and 100 % of control | endpoint: mean survival time, dose: 200.0 mg/kg/injection, schedule: Q01DX009 (ip), vehicle: saline with Tween-80 97 % of control
